{"source": "paper PMC4139342", "about": "“Pharmacokinetics-Pharmacodynamics Analysis of Bicyclic 4-Nitroimidazole Analogs in a Murine Model of Tuberculosis” (PLoS ONE, 2014)", "key": {"[1]": {"system": "M. tuberculosis (Mtb) (H37Rv, ATCC 27294)", "assay": "microbe, parasite or virus in culture", "assay_type": "cell-based", "conditions": "Mycobacterium tuberculosis"}, "[2]": {"assay": "Cytotoxicity against THP1 macrophage cell lines", "assay_type": "cell-based", "conditions": "human"}, "[3]": {"system": "Mtb H37Rv", "assay": "In vivo mouse efficacy, established murine TB model", "parameters": "species or system Balb/c mice", "conditions": "100 mg/kg oral daily for 4 weeks", "method": "In vivo mouse efficacy studies were determined after intranasal infection of Balb/c mice with 10^3 cfu Mtb H37Rv. Treatment was initiated 4 weeks after infection. Compounds were orally administered in CM-2 formulation for 4 weeks daily. Bacterial loads were determined at 2 and 4 weeks post treatment. Statistical analysis was done by a one-way analysis of variance, followed by a multiple comparison analysis of variance by a one-way Tukey test (GraphPad Prism, version 5.02, San Diago, California USA, www.graphpad.com). Differences were considered statistically significant at the 95% level of confidence."}, "[4]": {"conditions": "female, CD-1, mouse, in vivo, iv, 5 mg/kg"}, "[5]": {"conditions": "female, CD-1, mouse, in vivo, po, 25 mg/kg"}, "[6]": {"assay": "in vivo", "conditions": "female, CD-1, mouse, po, 25 mg/kg"}, "[7]": {"assay": "in vivo", "conditions": "female, CD-1, mouse, iv, 5 mg/kg"}, "[8]": {"assay": "in vivo", "conditions": "female, CD-1, mouse, po, 25 mg/kg", "remark": "listed apart in the source"}, "[9]": {"assay": "physchem", "conditions": "pH 6.8, aqueous buffer, thermodynamic from solid"}, "[10]": {"assay": "physchem"}, "[11]": {"assay": "in vitro", "conditions": "human, Caco-2"}, "[12]": {"assay": "in vitro", "conditions": "mouse, plasma"}, "[13]": {"assay": "In vivo lung PK after oral dosing", "conditions": "female, CD-1, mouse, 25 mg/kg"}, "[14]": {"assay": "In vivo plasma PK after intravenous dosing", "conditions": "female, CD-1, mouse, plasma, iv, 5 mg/kg, T1/2 (i.v), mice, i.v. dosing at 5 mg/kg"}, "[15]": {"assay": "In vivo plasma PK after oral dosing in CM-2 formulation", "conditions": "female, CD-1, mouse, plasma, po, 25 mg/kg"}}}
{"compound": "O=[N+]([O-])c1cn2c(n1)OC1(CC1)C(OCc1ccc(OC(F)(F)F)cc1)C2", "note": "(centres unmarked) [NI-302]", "values": [{"measurement": "MIC99", "setting": "[1]", "result": 0.03, "unit": "µg/mL"}, {"measurement": "CC50", "setting": "[2]", "result": "> 10", "unit": "µg/mL"}, {"measurement": "Mean log lung CFU ± SEM", "setting": "[3]; 5 animals", "result": "4.45±0.22", "unit": "log CFU"}, {"measurement": "Efficacy compared with PA-824, in words", "setting": "[3]; significance at P<0.05", "result": "comparable efficacy to PA-824"}, {"measurement": "log reduction at 100 mg/kg", "setting": "[3]; Mycobacterium tuberculosis, H37RV, po, 672 h, 5 animals, read-out: Mean log lung CFU reduction ± SEM compared to untreated controls", "result": "2.17 ± 0.22"}, {"measurement": "PAMPA %FA", "result": 99, "unit": "%"}, {"measurement": "PAMPA Log Pe", "result": "–3.6 cm/sec"}, {"measurement": "i.v. CL", "setting": "[4]", "result": 4.3, "unit": "mL/min/kg"}, {"measurement": "Lung AUC24", "setting": "[5]", "result": 100.3, "unit": "µg·h/g"}, {"measurement": "Lung Cmax", "setting": "[5]", "result": 9.7, "unit": "µg/g"}, {"measurement": "AUC", "setting": "[6]", "result": 144, "unit": "µg·h/mL"}, {"measurement": "Cmax", "setting": "[6]", "result": 12900, "unit": "ng/mL"}, {"measurement": "bioavailability", "setting": "[6]", "result": 100, "unit": "%"}, {"measurement": "Vd", "setting": "[7]", "result": 1.2, "unit": "L/kg"}, {"measurement": "clearance", "setting": "[7]; i.v. CL", "result": 5, "unit": "mL/min/kg"}, {"measurement": "Kp", "setting": "[8]; Lung to Plasma ratio AUC24", "result": 0.7}, {"measurement": "Kp", "setting": "[8]; Lung to Plasma ratio Cmax", "result": 0.8}, {"measurement": "solubility", "setting": "[9]", "result": 26, "unit": "µg/mL"}, {"measurement": "logP", "setting": "[10]", "result": 3.2}, {"measurement": "Papp A→B", "setting": "[11]", "result": 45.1, "unit": "×10⁻⁶ cm/s"}, {"measurement": "Papp B→A", "setting": "[11]", "result": 18.7, "unit": "×10⁻⁶ cm/s"}, {"measurement": "efflux ratio", "setting": "[11]", "result": 0.4}, {"measurement": "fraction unbound", "setting": "[12]", "result": 0.043}, {"measurement": "half-life", "setting": "[13]", "result": 4.1, "unit": "h"}, {"measurement": "half-life", "setting": "[14]", "result": 3.7, "unit": "h"}, {"measurement": "half-life", "setting": "[15]", "result": 4.1, "unit": "h"}]}
